What was measured:
RNase A = target: T1, RNase A (Bos taurus, UniProt P61823)
T1 sequence (P61823 27-150): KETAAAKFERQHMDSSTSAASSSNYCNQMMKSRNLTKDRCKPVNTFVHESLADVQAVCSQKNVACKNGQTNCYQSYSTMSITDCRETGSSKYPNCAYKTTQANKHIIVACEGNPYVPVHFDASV

[1] = system: Rag1-40 target sequence in the 3′ UTR of firefly luciferase, COS-1 cells
Procedure: A 26 bp fragment comprising the target site of Rag1-40 was cloned in the antisense orientation into the 3′ UTR region of the firefly luciferase gene in a pmirGLO dual luciferase vector. Vector plasmids were co-transfected with the indicated saRNAs into COS-1 cells. Cells were lysed 48 hours after transfection, and the resulting lysates were assessed for luciferase activity. Data represent mean±SD of at least two independent experiments. Dashed line represents comparisons to blank control (top dashed line) and Rag1-40 (bottom dashed line). Values close to the top dashed line indicate no off-target effect.
A 26 bp fragment comprising the Rag1-40 target sequence was cloned in the antisense orientation into a multiple cloning site (MCS) of the 3′ untranslated region of firefly luciferase of the pmirGLO dual luciferase vector (Promega, Fitchburg, WI), to obtain pOff-Target plasmid. Following E. coli transformation and overnight incubation, plasmids for each construct were prepared by standard method. Each plasmid was transfected into COS-1 monkey kidney epithelial cells using Lipofectamine 3000 (Invitrogen, Carlsbad, CA). Subsequently, saRNA was transfected using RNAiMAX. After 24 hours of incubation, COS-1 cells were lysed with 1× lysis buffer, and luciferase activity was measured using dual luciferase reporter gene assay system (Promega, WI, USA) following manufacturer's instructions.
To assess the off-target effects of unmodified and modified saRNAs, a sequence complementary to the sense oligonucleotide strand of Rag1-40 was cloned into the 3′UTR region of the luciferase gene in a pmirGLO dual luciferase vector. The vector plasmid was co-transfected with the saRNA into COS-1 cells. Cells were lysed 48 hours after transfection and the resulting lysates were assessed for luciferase activity.

RAG1-40-31: saRNA duplex: sense fCfCAACUCAUUCUCCAAG*U*C (SEQ ID NO 16); antisense U*A*fCfUfUGGAGAAfUGAGfUfUGG*fC*A (SEQ ID NO 12) (sense CCAACUCAUUCUCCAAGUC; antisense UACUUGGAGAAUGAGUUGGCA; 2'-F and phosphorothioate modifications; modified_base (1)..(2) (1,2)=2′-fluoro; modified_base (17)..(19) (17,18,19)=phosphorothioate (PS) backbone modification; modified_base (2)..(21) (2,3,19,20,21)=phosphorothioate (PS) backbone modification; modified_base (3)..(20) (3,4,5,12,16,17,20)=2′-fluoro)
degradation of duplex at 96 hours (RNase A): little or no signs of degradation
off-target effect compared to unmodified Rag1-40, in words [1]: mitigated or similar off-target effects

— patent US20240301409A1, “Chemically Modified Small Activating RNA” (RACTIGEN THERAPEUTICS, priority 2021, published 2024)
